Assay results reported in patent publication US10294202B2, “Pyrrolidinones as herbicides” (FMC Corporation, priority 2013, dated 2019).

Assays:
wheat = assay: Test A pre-/postemergence herbicide test; assay type: in vivo, Triticum aestivum; details: for Plant response rating, Wheat: 0 to 100 scale
Outline: (§1)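 Visual injury ratings, 0 = no effect, 100 = complete control, taken ~10 days after treatment against untreated greenhouse controls. Preemergence: directed soil spray onto seeded loam/sand pots. Postemergence: spray onto plants at one- to two-leaf stage, 2–10 cm tall.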

barnyardgrass [1] = assay: Test B flooded paddy test; assay type: in vivo, Echinochloa crus-galli; details: Flood, scale of 0 to 100 where 0 is no effect and 100 is complete control
Outline: (§2)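 Visual ratings from 0, meaning no effect, up to 100, meaning complete control, were made by comparison with untreated controls 13 to 15 days after treatment. Test compounds went straight into floodwater standing 3 cm over the soil of pots holding 2-leaf seedlings.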

rice = assay: Test B flooded paddy test; assay type: in vivo, Oryza sativa; details: Flood, scale of 0 to 100 where 0 is no effect and 100 is complete control
Outline: as §2

barnyardgrass [2] = assay: Test A pre-/postemergence herbicide test; assay type: in vivo, Echinochloa crus-galli; details: for Plant response rating, Barnyardgrass: 0 to 100 scale
Outline: as §1

velvetleaf = assay: Test A pre-/postemergence herbicide test; assay type: in vivo, Abutilon theophrasti; details: for Plant response rating, Velvetleaf: 0 to 100 scale
Outline: as §1

crabgrass, large = assay: Test A pre-/postemergence herbicide test; assay type: in vivo, Digitaria sanguinalis; details: for Plant response rating, Crabgrass, Large: 0 to 100 scale
Outline: as §1

sedge, umbrella = assay: Test B flooded paddy test; assay type: in vivo, Cyperus difformis; details: Flood, scale of 0 to 100 where 0 is no effect and 100 is complete control
Outline: as §2

morningglory = assay: Test A pre-/postemergence herbicide test; assay type: in vivo, Ipomoea spp.; details: for Plant response rating, Morningglory: 0 to 100 scale
Outline: as §1

ducksalad = assay: Test B flooded paddy test; assay type: in vivo, Heteranthera limosa; details: Flood, scale of 0 to 100 where 0 is no effect and 100 is complete control
Outline: as §2

pigweed = assay: Test A pre-/postemergence herbicide test; assay type: in vivo, Amaranthus retroflexus; details: for Plant response rating, Pigweed: 0 to 100 scale
Outline: as §1

corn = assay: Test A pre-/postemergence herbicide test; assay type: in vivo, Zea mays; details: for Plant response rating, Corn: 0 to 100 scale
Outline: as §1

giant foxtail = assay: Test A pre-/postemergence herbicide test; assay type: in vivo, Setaria faberii; details: for Plant response rating, Foxtail, Giant: 0 to 100 scale
Outline: as §1

[3] = 125 g ai/ha, visual rating, 0 no effect, 100 complete control, approximately 10 days, preemergence
[4] = Postemergence, 125 g ai/ha, 0 is no effect, 100 is complete control
[5] = preemergence, 500 g ai/ha, 0 is no effect and 100 is complete control

## COc1ccc(C2CNC(=O)C2C(=O)Nc2ccccc2F)cc1F (racemic) [Compound 197]
wheat; [3]
  Plant response rating, Wheat: 0
wheat; [4]
  Plant response rating, Wheat: 0
wheat; Postemergence, 500 g ai/ha
  Wheat plant response rating (0 to 100 scale, 0 is no effect, 100 is complete control): 0
wheat; [5]
  Plant response rating, Wheat: 0
Barnyardgrass [1]; 250 g ai/ha
  Plant response rating, Barnyardgrass: 0
Barnyardgrass [1]; 1000 g ai/ha
  Plant response rating, Barnyardgrass: 30
rice; 250 g ai/ha
  Plant response rating, Rice: 0
rice; 1000 g ai/ha
  Plant response rating, Rice: 10
Barnyardgrass [2]; [3]
  Plant response rating, Barnyardgrass: 0
Barnyardgrass [2]; [4]
  Plant response rating, Barnyardgrass: 30
Barnyardgrass [2]; Postemergence, 500 g ai/ha
  Barnyardgrass plant response rating (0 to 100 scale, 0 is no effect, 100 is complete control): 70
Barnyardgrass [2]; [5]
  Plant response rating, Barnyardgrass: 70
velvetleaf; [3]
  Plant response rating, Velvetleaf: 0
velvetleaf; [4]
  Plant response rating, Velvetleaf: 0
velvetleaf; Postemergence, 500 g ai/ha
  Velvetleaf plant response rating (0 to 100 scale, 0 is no effect, 100 is complete control): 0
velvetleaf; [5]
  Plant response rating, Velvetleaf: 0
crabgrass, large; [3]
  Plant response rating, Crabgrass, Large: 80
crabgrass, large; [4]
  Plant response rating, Crabgrass, Large: 50
crabgrass, large; Postemergence, 500 g ai/ha
  Crabgrass, Large plant response rating (0 to 100 scale, 0 is no effect, 100 is complete control): 70
crabgrass, large; [5]
  Plant response rating, Crabgrass, Large: 100
sedge, umbrella; 250 g ai/ha
  Plant response rating, Sedge, Umbrella: 0
sedge, umbrella; 1000 g ai/ha
  Plant response rating, Sedge, Umbrella: 0
morningglory; [3]
  Plant response rating, Morningglory: 0
morningglory; [4]
  Plant response rating, Morningglory: 0
morningglory; Postemergence, 500 g ai/ha
  Morningglory plant response rating (0 to 100 scale, 0 is no effect, 100 is complete control): 10
morningglory; [5]
  Plant response rating, Morningglory: 0
ducksalad; 250 g ai/ha
  Plant response rating, Ducksalad: 0
ducksalad; 1000 g ai/ha
  Plant response rating, Ducksalad: 75
pigweed; [3]
  Plant response rating, Pigweed: 0
pigweed; [4]
  Plant response rating, Pigweed: 0
pigweed; Postemergence, 500 g ai/ha
  Pigweed plant response rating (0 to 100 scale, 0 is no effect, 100 is complete control): 0
pigweed; [5]
  Plant response rating, Pigweed: 0
corn; [3]
  Plant response rating, Corn: 0
corn; [4]
  Plant response rating, Corn: 0
corn; Postemergence, 500 g ai/ha
  Corn plant response rating (0 to 100 scale, 0 is no effect, 100 is complete control): 0
corn; [5]
  Plant response rating, Corn: 0
Giant foxtail; [3]
  Plant response rating, Foxtail, Giant: 30
Giant foxtail; [4]
  Plant response rating, Foxtail, Giant: 0
Giant foxtail; Postemergence, 500 g ai/ha
  Foxtail, Giant plant response rating (0 to 100 scale, 0 is no effect, 100 is complete control): 40
Giant foxtail; [5]
  Plant response rating, Foxtail, Giant: 80
